As usually defined, the IC50 is the concentration at which inhibition is half-maximal.

The values that follow come from US12319655B2, “RAF kinase inhibitors and methods of use thereof” (Deciphera Pharmaceuticals, LLC, priority 2021, dated 2025).

Experiment [1] has as its target C-Raf kinase (SEQ. ID NO: 3) (Homo sapiens (Human), UniProt P04049, Y340D/Y341D). Briefly: Biochemical Assay for C-Raf (1). As to conditions: Table J, assay version (1); read-out: CRAF (1) IC50. The essentials:
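Coupled pyruvate kinase/LDH assay tracking NADH oxidation at 340 nm, with 0.43 nM C-Raf, 30.1 nM MEK and 1 mM ATP in pH 7.5 Tris buffer (15 mM MgCl2, 1% DMSO final). Read continuously for 6 h at 30 °C, rate taken from the 4–5 h window. IC50 from four-parameter fit of percent inhibition.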

Experiment [2] has as its system H2405 cells. Briefly: H2405 Cell Proliferation Assay (1). The format is cell-based. As to conditions: Homo sapiens, NCI-H2405. Put shortly:
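Viability was read by resazurin reduction (ex 540 nm, em 600 nm; 5-6 h with 40 μL of 440 μM stock) after 67-72 h compound exposure at 37 °C.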

The target in experiment [3] is B-Raf (V600E) (SEQ. ID NO: 4) kinase (Homo sapiens (Human), UniProt P15056, V600E). Briefly: Biochemical Assay for B-Raf (V600E) (1). As to conditions: Table J, BRAF V600E, assay version (1); read-out: BRAF VE (1) IC50. Put shortly: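 Coupled pyruvate kinase/lactate dehydrogenase assay: 0.03 nM B-Raf V600E, 30.1 nM MEK, 1 mM ATP, pH 7.5 Tris/MgCl2 buffer, 1% DMSO. NADH oxidation followed at 340 nm for 6 h at 30 °C; rate from 3–4 h converted to percent inhibition, IC50 by four-parameter fit.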
Sequence of B-Raf (V600E) (SEQ. ID NO: 4) kinase (P15056 416-766 V600E): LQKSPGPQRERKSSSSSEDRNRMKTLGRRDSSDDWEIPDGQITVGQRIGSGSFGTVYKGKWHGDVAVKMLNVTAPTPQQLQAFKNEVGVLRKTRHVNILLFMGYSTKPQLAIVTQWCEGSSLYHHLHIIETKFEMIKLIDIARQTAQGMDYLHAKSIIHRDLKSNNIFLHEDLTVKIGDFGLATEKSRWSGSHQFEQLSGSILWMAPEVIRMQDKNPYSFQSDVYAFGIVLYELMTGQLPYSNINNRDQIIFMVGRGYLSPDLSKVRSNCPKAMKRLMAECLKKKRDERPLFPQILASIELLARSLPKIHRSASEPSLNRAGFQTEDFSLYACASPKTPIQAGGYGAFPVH

In experiment [4] the target is B-Raf kinase (SEQ. ID NO: 2) (Homo sapiens (Human), UniProt P15056). Briefly: Biochemical Assay for B-Raf (1). The note with it: Table J, assay version (1); read-out: BRAF (1) IC50. The essentials: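 Continuous PK/LDH-coupled NADH oxidation assay, A340 read for 6 h at 30° C., with 0.13 nM B-Raf, 30.1 nM MEK substrate and 1 mM ATP in Tris pH 7.5, MgCl2, DTT, detergents, 1% DMSO. Rate taken from 4–5 h window; percent inhibition vs no-compound and known-inhibitor controls; four-parameter fit gives IC50.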
Sequence of B-Raf kinase (SEQ. ID NO: 2) (P15056 416-766): as the sequence (P15056 416-766 V600E) above, with E185V counted along it

Sequence of C-Raf kinase (SEQ. ID NO: 3) (P04049 307-648 Y340D/Y341D): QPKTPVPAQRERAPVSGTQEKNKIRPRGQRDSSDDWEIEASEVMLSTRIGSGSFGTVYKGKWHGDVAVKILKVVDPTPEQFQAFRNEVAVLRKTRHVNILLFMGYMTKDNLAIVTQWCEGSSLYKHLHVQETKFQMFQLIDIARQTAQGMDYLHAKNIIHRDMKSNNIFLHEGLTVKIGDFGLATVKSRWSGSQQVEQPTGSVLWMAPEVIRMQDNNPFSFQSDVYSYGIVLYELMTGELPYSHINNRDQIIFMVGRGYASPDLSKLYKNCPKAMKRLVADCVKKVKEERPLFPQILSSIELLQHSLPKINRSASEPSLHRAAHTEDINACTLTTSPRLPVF

In the case of `COC(C)(C)c1cc(C(=O)Nc2cnc(C)c(-c3cccc(-c4cc(NC(=O)C5CC5)ncn4)c3)c2)ccn1` [Example 274], the half-maximal inhibitory concentration (IC50) in experiment [1], in experiment [2], in experiment [3] and in experiment [4] was not above 0.1 µM each time.
Turning to `CCOc1cc(-c2cc(NC(=O)c3ccnc(C(F)(F)F)c3)ccc2C)cc(-c2ccnc(NC(=O)C3CC3)c2)n1` [Example 12], the half-inhibitory concentration (IC50) in experiment [1] was not above 0.1 µM; in experiment [2], 0.1 to 0.5 µM; in experiment [3], not above 0.1 µM; in experiment [4] it was not above 0.1 µM.
Consider `Cc1ccc(NC(=O)c2cc(CN(C)C)cc(C(F)(F)F)c2)cc1-c1cncc(-c2ccnc(NC(=O)C3CC3)c2)n1` [Example 185], for which the IC50 in experiment [1], in experiment [2], in experiment [3] and in experiment [4] was not above 0.1 µM each time.
With `CNC(=O)c1cc(-c2nc(-c3cc(NC(=O)c4ccnc(C(C)(C)C#N)c4)ccc3C)cc(C3CC3)n2)ccn1` [Example 196], the 50% inhibitory concentration (IC50) in experiment [1] is 0.1 to 0.5 µM; in experiment [2], 0.1 to 0.5 µM; in experiment [3] it was not above 0.1 µM; in experiment [4], 0.1 to 0.5 µM.
Turning to `CCNC(=O)c1cc(-c2cc(-c3cc(NC(=O)c4ccnc(C(C)(C)C#N)c4)ccc3C)ccn2)ccn1` [Example 266], the IC50 was not above 0.1 µM in experiment [1], 0.1 to 0.5 µM in experiment [2], not above 0.1 µM in experiment [3] and 0.1 to 0.5 µM in experiment [4].
Take `CNC(=O)c1cc(-c2cccc(-c3cc(NC(=O)c4ccnc(C(C)(C)C#N)c4)cnc3C)c2)ccn1` [Example 192]: the IC50 in experiment [1] was not above 0.1 µM; in experiment [2] it was 0.1 to 0.5 µM; in experiment [3], not above 0.1 µM; in experiment [4], 0.1 to 0.5 µM.
Turning to `CNC(=O)c1cc(-c2cc(-c3cc(NC(=O)c4ccnc(C(C)(C)F)c4)ccc3C)ccn2)ccn1` [Example 214], the half-maximal inhibitory concentration (IC50) in experiment [1] was not above 0.1 µM; in experiment [2], 0.1 to 0.5 µM; in experiment [3] it was not above 0.1 µM; in experiment [4], 0.1 to 0.5 µM.
Regarding `CNC(=O)c1cc(-c2cccc(-c3cc(NC(=O)c4ccnc(C(C)(C)C#N)c4)cnc3C)c2)ncn1` [Example 204], the IC50 in experiment [1] was 0.1 to 0.5 µM; in experiment [2], 0.1 to 0.5 µM; in experiment [3], not above 0.1 µM; in experiment [4], 0.1 to 0.5 µM.
On to `Cc1ccc(NC(=O)c2ccnc(C(F)(F)F)c2)cc1-c1ccnc(-c2ccnc(N)c2)c1` [Example 16, N-(3-(2′-amino-[2,4′-bipyridin]-4-yl)-4-methylphenyl)-2-(trifluoromethyl)isonicotinamide], for which the IC50 is not above 0.1 µM in experiment [1], 1 to 10 µM in experiment [2], not above 0.1 µM in experiment [3] and not above 0.1 µM in experiment [4].
As to `CNC(=O)c1cc(-c2cc(-c3cc(NC(=O)c4ccnc(C5(C#N)CC5)c4)ccc3C)ccn2)ccn1` [Example 265], the IC50 in experiment [1], in experiment [2], in experiment [3] and in experiment [4] was not above 0.1 µM in each case.
Take `Cc1ncc(NC(=O)c2ccnc(C(C)C)c2)cc1-c1cccc(-c2ccnc(NC(=O)C3CC3)c2)n1` [Example 269]: the IC50 in experiment [1], in experiment [2], in experiment [3] and in experiment [4] was not above 0.1 µM in each case.
For the compound `Cc1ccc(NC(=O)c2ccnc(C(C)(C)C#N)c2)cc1-c1cnnc(-c2ccnc(NC(=O)C3CC3)c2)c1` [Example 230], the concentration for half-maximal inhibition (IC50) in experiment [1], in experiment [2], in experiment [3] and in experiment [4] was not above 0.1 µM each time.
With `Cc1ccc(NC(=O)c2ccnc(C(C)(C)C#N)c2)cc1-c1ccnc(-c2ccnc(NC(=O)C3(C#N)CC3)c2)n1` [Example 241], the IC50 in experiment [1], in experiment [2], in experiment [3] and in experiment [4] was not above 0.1 µM in each case.
Turning to `Cc1cc(F)c(NC(=O)c2ccnc(C(C)(C)F)c2)cc1-c1cncc(-c2ccnc(NC(=O)C3CC3)c2)n1` [Example 276], the IC50 in experiment [1], in experiment [2], in experiment [3] and in experiment [4] was not above 0.1 µM throughout.
For the compound `Cc1ccc(NC(=O)c2ccnc(C(C)(C)C#N)c2)cc1-c1cc(-c2ccnc(NC(=O)C3CC3)c2)cnn1` [Example 245], the IC50 in experiment [1], in experiment [2], in experiment [3] and in experiment [4] was not above 0.1 µM in each case.
As for `CC(=O)Nc1cc(-c2cc(-c3cc(NC(=O)c4ccnc(C(C)(C)C#N)c4)ccc3C)ccn2)ccn1` [Example 19], the IC50 in experiment [1], in experiment [2], in experiment [3] and in experiment [4] was not above 0.1 µM each time.
Consider `CNC(=O)c1cc(-c2cc(-c3cc(NC(=O)c4ccnc(C(C)(C)C#N)c4)ccc3C#N)ccn2)ccn1` [Example 247], for which the half-inhibitory concentration (IC50) in experiment [1] was 0.1 to 0.5 µM; in experiment [2], 0.1 to 0.5 µM; in experiment [3], not above 0.1 µM; in experiment [4], 1 to 10 µM.
Take `Cc1ccc(NC(=O)c2ccnc(C(F)F)c2)cc1-c1ccnc(-c2ccnc(NC(=O)C3CC3)c2)n1` [Example 189]: the concentration for half-maximal inhibition (IC50) is not above 0.1 µM in experiment [1], 0.1 to 0.5 µM in experiment [2], not above 0.1 µM in experiment [3] and not above 0.1 µM in experiment [4].
`Cc1ncc(NC(=O)c2cnn(C(C)(C)C)c2)cc1-c1cccc(-c2cc(NC(=O)C3CC3)ncn2)c1` [Example 279]: the IC50 in experiment [1] is not above 0.1 µM; in experiment [2] it was 0.1 to 0.5 µM; in experiment [3] it was not above 0.1 µM; in experiment [4] it was not above 0.1 µM.
`Cc1ncc(NC(=O)c2ccnc(C(C)(C)C#N)c2)cc1-c1cccc(-c2ccnc(NC(=O)C3CC3)c2)c1` [Example 222]: the IC50 was not above 0.1 µM in experiment [1], 0.1 to 0.5 µM in experiment [2], not above 0.1 µM in experiment [3] and not above 0.1 µM in experiment [4].
Turning to `CC(=O)Nc1cc(-c2cc(-c3cc(NC(=O)c4ccnc(C(F)(F)F)c4)ccc3C)cc(N3CCOCC3)n2)ccn1` [Example 15], the concentration for half-maximal inhibition (IC50) in experiment [1], in experiment [2], in experiment [3] and in experiment [4] was not above 0.1 µM each time.
Consider `CNC(=O)c1cc(-c2ccnc(-c3cc(NC(=O)c4ccnc(C(C)(C)F)c4)ccc3C)n2)ccn1` [Example 246], for which the concentration for half-maximal inhibition (IC50) in experiment [1] is not above 0.1 µM; in experiment [2], 0.1 to 0.5 µM; in experiment [3], not above 0.1 µM; in experiment [4], 0.1 to 0.5 µM.
As for `Cc1cc(C(=O)Nc2cnc(C)c(-c3ccnc(-c4ccnc(NC(=O)C5CC5)c4)n3)c2)ccn1` [Example 273], the half-inhibitory concentration (IC50) in experiment [1] is not above 0.1 µM; in experiment [2], 1 to 10 µM; in experiment [3], not above 0.1 µM; in experiment [4], 0.1 to 0.5 µM.
With `COCCNc1cc(-c2nccc(-c3cc(NC(=O)c4ccnc(C(C)(C)C#N)c4)ccc3C)n2)ccn1` [Example 221], the concentration for half-maximal inhibition (IC50) in experiment [1] was not above 0.1 µM; in experiment [2] it was 1 to 10 µM; in experiment [3], not above 0.1 µM; in experiment [4], not above 0.1 µM.
In the case of `Cc1ncc(NC(=O)c2ccnc(C(C)(C)F)c2)cc1-c1cccc(-c2cc(NC(=O)C3CC3)ncn2)c1` [Example 249], the half-maximal inhibitory concentration (IC50) was not above 0.1 µM in experiment [1], 0.1 to 0.5 µM in experiment [2], not above 0.1 µM in experiment [3] and not above 0.1 µM in experiment [4].
For `Cc1ncc(NC(=O)c2ccnc(C(C)(C)C#N)c2)cc1-c1ccnc(-c2ccnc(NC(=O)C3CC3)c2)c1` [Example 251], the half-maximal inhibitory concentration (IC50) in experiment [1] is not above 0.1 µM; in experiment [2] it was 0.1 to 0.5 µM; in experiment [3], not above 0.1 µM; in experiment [4] it was not above 0.1 µM.
On to `Cc1ccc(NC(=O)c2cc(CN(C)C)cc(C(F)(F)F)c2)cc1-c1cccc(-c2cc(NC(=O)C3CC3)ncn2)c1` [Example 202], for which the IC50 was not above 0.1 µM in experiment [1], 0.1 to 0.5 µM in experiment [2], not above 0.1 µM in experiment [3] and not above 0.1 µM in experiment [4].
`Cc1ncc(NC(=O)c2ccnc(C3CC3)c2)cc1-c1cnc(C)c(-c2ccnc(NC(=O)C3CC3)c2)c1` [Example 256]: the IC50 in experiment [1] was not above 0.1 µM; in experiment [2] it was 0.1 to 0.5 µM; in experiment [3] it was not above 0.1 µM; in experiment [4] it was not above 0.1 µM.
On to `CNC(=O)c1cc(-c2cc(-c3cc(NC(=O)c4ccnc(C(C)(C)C#N)c4)ccc3F)cc(C)n2)ccn1` [Example 259], for which the IC50 in experiment [1] is not above 0.1 µM; in experiment [2] it was 0.1 to 0.5 µM; in experiment [3], not above 0.1 µM; in experiment [4] it was 0.1 to 0.5 µM.
On to `Cc1ncc(NC(=O)c2ccnc(C(C)(C)C#N)c2)cc1-c1cccc(-c2cc(N)ncn2)c1` [Example 207], for which the IC50 in experiment [1] was not above 0.1 µM; in experiment [2] it was 1 to 10 µM; in experiment [3] it was not above 0.1 µM; in experiment [4] it was 0.1 to 0.5 µM.
Take `COC(=O)Nc1cc(-c2cccc(-c3cc(NC(=O)c4ccnc(C(C)(C)C#N)c4)cnc3C)c2)ncn1` [Example 225]: the half-inhibitory concentration (IC50) in experiment [1] is not above 0.1 µM; in experiment [2], 0.5 to 1 µM; in experiment [3], not above 0.1 µM; in experiment [4] it was not above 0.1 µM.
